Reference: patent EP1020434A1, “3-AMIDINOANILINE DERIVATIVES, ACTIVATED BLOOD COAGULATION FACTOR X INHIBITORS, AND INTERMEDIATES FOR PRODUCING BOTH” (priority 1997, dated 1999)
Counter-ions that a name gives are not always drawn. Like-named read-outs stand apart in the source and are kept apart here.

How the values were obtained:
[1] = target: T1, human activated blood coagulation factor X (Homo sapiens, UniProt P00742); experiment: Measurement of inhibitory activity for activated blood coagulation factor X (chromogenic substrate S-2222); format: biochemical
T1 construct: purchased Calbiochem Corporation
T1 sequence (P00742 235-488 limits assumed): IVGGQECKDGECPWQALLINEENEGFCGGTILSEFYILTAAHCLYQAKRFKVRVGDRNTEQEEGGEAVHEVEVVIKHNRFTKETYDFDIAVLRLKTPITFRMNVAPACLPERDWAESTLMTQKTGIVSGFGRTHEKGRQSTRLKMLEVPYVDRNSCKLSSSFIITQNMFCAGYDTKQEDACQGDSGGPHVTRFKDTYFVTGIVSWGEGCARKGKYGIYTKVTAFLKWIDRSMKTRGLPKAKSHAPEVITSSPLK
T1 sequence (P00742 41-179 partner limits assumed): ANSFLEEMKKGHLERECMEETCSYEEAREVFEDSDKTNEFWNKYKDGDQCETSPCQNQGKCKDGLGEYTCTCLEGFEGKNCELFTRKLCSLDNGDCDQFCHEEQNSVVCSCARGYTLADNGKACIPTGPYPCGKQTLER
Experimental: Measurement of inhibitory activity for activated blood coagulation factor X
(§1) Five µl of dimethylsulfoxide solution of test compound, 375 µl of tris-hydrochloric acid buffer (pH 8.4) and 100 µl of 1 mM S-2222 (Daiichi Pure Chemicals) aqueous solution were mixed. Then 20 µl of 0.6 U/ml human activated blood coagulation factor X (Calbiochem Corporation) in gelatin-glycine buffer was added and the mixture was incubated for 10 minutes at 37 °C. The reaction was terminated with the addition of 100 µl of 60 % acetic acid and absorbance (405 nm) was measured.
The group without the test compound was defined as control and the group without human activated blood coagulation factor X was defined as blank.

human thrombin = target: T2, human thrombin (Homo sapiens, UniProt P00734); experiment: Measurement of inhibitory activity for thrombin (chromogenic substrate S-2238); format: biochemical
T2 construct: human thrombin (Sigma Chemical Company); purchased Sigma Chemical Company
Experimental: Measurement of inhibitory activity for thrombin
as §1, with “S-2238” for “S-2222”, “2.0” for “0.6”, “thrombin (Sigma Chemical Company)” for “activated blood coagulation factor X (Calbiochem Corporation)”
The group without the test compound was defined as control and the group without human thrombin was defined as blank. […]

normal human plasma = experiment: Measurement of anticoagulation effects (plasma prothrombin time); format: biochemical; settings: CT2, concentration that prolonged the clotting time (prothrombin time) of control by 2 times
Experimental: Measurement of anticoagulation effects (plasma prothrombin time)
Two µl of dimethylsulfoxide solution of test compound which was put in a process tube was incubated at 37 °C, and 50 µl of normal human plasma (George King Bio-Medical Inc.) was mixed. One minute later, 100 µl of plasma prothrombin time reagent (Neoplastin Plus®, Boehringer Mannheim) was added into the mixture. Prothrombin time was measured with ST4 (Boehringer Mannheim).
The group without the test compound was defined as control. The concentration of test compound that prolonged the clotting time of control by 2 times (CT2) was obtained and this value was used as the index of anticoagulation activity.

Male Wistar rats = experiment: Acute toxicity test; format: in vivo
Experimental: Male Wistar rats aged 7 weeks (SLC) were divided into several groups consisting of 5 rats. The test compound was dissolved at the concentration that became the administration volume as 2.5 ml/kg. The solution was administered through the tail vein at an infusion rate of 1 ml/minute. Observations were performed at constant intervals, and survival rate was judged for 24 hours.

[2] = IC50, concentration showing 50 % inhibition of control, 10 minutes at 37 °C, pH 8.4, read-out: Inhibitory activity for activated blood coagulation factor X
[3] = IC50, concentration showing 50 % inhibition of control, 10 minutes at 37 °C, pH 8.4, read-out: Inhibitory activity for thrombin

Row | Compound | IC50 [1, 2] [µM] | IC50 (human thrombin; [3]) [µM] | Anticoagulation effect (normal human plasma) [µM] | IC50 [1] [µM] | IC50 (human thrombin) [µM] | Death case (Male Wistar rats; 30 mg/kg through the tail vein, groups of 5 rats, survival judged for 24 hours) | death in acute toxicity test (Male Wistar rats; rats, intravenous administration, dose of 30 mg/kg)
1 | CC(C)=CCN(CC(=O)Nc1ccc(OC(C)C)cc1)c1cccc(C(=N)N)c1.Cl [Compound 22, 2-[N-(3-Amidinophenyl)-N-(3-methyl-2-butenyl)amino]-N-(4-isopropoxyphenyl)acetamide hydrochloride] | 0.015 | 13 | 0.29 | – | – | – | –
2 | CC(=N)N1CCC(Oc2ccc(NC(=O)CN(Cc3ccccc3)c3cccc(C(=N)N)c3)cc2)CC1 [Compound 58, 2-[N-(3-Amidinophenyl)-N-benzylaminol-N-[4-[1-(1-imino-ethyl)piperidin-4-yloxy]phenyl]acetamidedihydrochloride] | – | – | 0.24 | 0.042 | 100 | – | –
3 | CC(=N)N1CCC(c2ccc(NC(=O)CN(Cc3cccc(O)c3)c3cccc(C(=N)N)c3)cc2)CC1.Cl.Cl [Compound 52, 2-[N-(3-Amidinophenyl)-N-(3-hydroxybenzyl)amino]-N-[4-[1-(1-iminoethyl)piperidin-4-yl]phenyl]acetamide dihydrochloride] | 0.016 | 77 | 0.17 | – | – | – | –
4 | CC(=N)N1CCC(c2ccc(NC(=O)CN(Cc3cccc(OCC(=O)O)c3)c3cccc(C(=N)N)c3)cc2)CC1.Cl.Cl [Compound 62, 2-[N-(3-Amidinophenyl)-N-(3-carboxymethyloxybenzyl)amino]-N-[4-[1-(1-iminoethyl)piperidin-4-yl]phenyl]acetamide dihydrochloride] | – | 206 | 0.21 | – | – | 0/5 | no death was observed
5 | CC(=N)N1CCC(c2ccc(NC(=O)CN(CC=C(C)C)c3cccc(C(=N)N)c3)cc2)CC1.Cl.Cl [Compound 55, 2-[N-(3-Amidinophenyl)-N-(3-methyl-2-butenyl)amino]-N-[4-[1-(1-iminoethyl)piperidin-4-yl]phenyl]acetamide dihydrochloride] | 0.004 | 15 | 0.091 | – | – | – | –

Continued, in another order:

Row | IC50 [1, 2] [µM] | IC50 (human thrombin; [3]) [µM] | Compound | Anticoagulation effect (normal human plasma) [µM] | IC50 [1] [µM] | IC50 (human thrombin) [µM] | Death case (Male Wistar rats; 30 mg/kg through the tail vein, groups of 5 rats, survival judged for 24 hours) | death in acute toxicity test (Male Wistar rats; rats, intravenous administration, dose of 30 mg/kg)
6 | 0.008 | 42 | CC(=N)N1CCC(c2ccc(NC(=O)CN(Cc3cccc4ccccc34)c3cccc(C(=N)N)c3)cc2)CC1 [Compound 65, 2-[N-(3-Amidinophenyl)-N-(1-naphthylmethyl)amino]-N-[4-[1-(1-iminoethyl)piperidin-4-yl]phenyl]acetamide dihydrochloride] | – | – | – | – | –
7 | 0.019 | 177 | CC(=N)N1CCC(c2ccc(NC(=O)CN(Cc3nc[nH]c3C)c3cccc(C(=N)N)c3)cc2)CC1.Cl.Cl [Compound 74, 2-[N-(3-Amidinophenyl)-N-(5-methylimidazol-4-ylmethyl)amino]-N-[4-[1-(1-iminoethyl)piperidin-4-yl]phenyl]acetamide dihydrochloride] | 0.30 | – | – | – | –
8 | 0.096 | 308 | CC(=N)N1CCC(Oc2ccc(NC(=O)CNc3cccc(C(=N)N)c3)cc2)CC1 [Compound 79, 2-(3-Amidinophenylamino)-N-[4-[1-(1-iminoethyl)piperidin-4-yloxy]phenyl]acetamide dihydrochloride] | – | – | – | – | –
